Data from patent US10330685B2, “Markers for sepsis treatment” (priority 2014, dated 2019).

Assays:
septic shock = septic shock patients; cited from earlier work
[1] = Serum metabolites by 1H-NMR before and 24 h and 48 h after L-carnitine treatment; assay type: in vivo, human
Method: (§1) These and other features, aspects, and advantages of the present technology will become better understood with regard to the following drawings, which represent the analysis of patients enrolled in a phase I study of L-carnitine in septic shock (see, e.g., Puskarich et al. J Parenter Enteral Nutr 38(6): 736-743, incorporated herein by reference in its entirety). From this study, serum samples collected from carnitine-treated (n=16) and placebo-treated (n=14) patients were assayed by ^1H-nuclear magnetic resonance (NMR) and the resulting spectra were used to identify and quantify metabolites; a total of 38 metabolites were identified in each sample:
Serum samples were collected from patients enrolled in a previously published double-blind randomized phase I clinical trial of L-carnitine treatment for sepsis (see, e.g., Puskarich et al., J Parenter Enteral Nutr 38(6): 736-743, incorporated herein by reference in its entirety). From this study, serum samples collected from carnitine-treated (n=16) and placebo-treated (n=15) patients were assayed by ^1H-nuclear magnetic resonance (NMR) and the resulting spectra were used to identify and quantify metabolites; a total of 38 metabolites were identified in each sample. […]
The levels of these metabolites were also measured in samples acquired at 24 hours and 48 hours after treatment with L-carnitine. […]

sepsis patients = test: Phase I clinical trial of L-carnitine treatment for sepsis: survival; assay type: in vivo, human
Method: as §1
Serum samples were collected from patients enrolled in a previously published double-blind randomized phase I clinical trial of L-carnitine treatment for sepsis (see, e.g., Puskarich et al., J Parenter Enteral Nutr 38(6): 736-743, incorporated herein by reference in its entirety). From this study, serum samples collected from carnitine-treated (n=16) and placebo-treated (n=15) patients were assayed by ^1H-nuclear magnetic resonance (NMR) and the resulting spectra were used to identify and quantify metabolites; a total of 38 metabolites were identified in each sample.
Serum was assayed prior to (T0) and following (T24, T48) treatment with a single 12-g dose of LC or placebo. […]

## C[N+](C)(C)C[C@H](O)CC(=O)[O-] [L-carnitine]
Septic shock
  hemodynamic parameters (right atrial pressure, mean arterial pressure, arterial oxygenation): improvements
[1]; in vivo
  carnitine levels at 24 hours: higher carnitine levels
[1]; serum, LC-treated patients, following a profound decline
  citrate levels: increased
Sepsis patients; "high" ketone sepsis patients treated with LC compared with "low" ketone patients
  mortality rate: higher mortality rate
Sepsis patients; patients with "low" amounts of ketone prior to L-carnitine treatment vs patients with "high" amounts
  survival: significantly better survival
